Source: patent publication US11999803B2, “Proteasome inhibitors” (University of Kentucky Research Foundation, priority 2018, dated 2024)

Legend:
[1] = system: LMP2; assay: LMP2 inhibition (figure legend); type: biochemical
[2] = system: APP transgenic mouse model of AD (Tg2576); assay: Morris water maze test in Tg2576 mice; type: in vivo
Procedure: (§1) FIG. 1A includes a schematic illustration showing the experimental schedule for a behavior test to assess cognitive impairment following administration of YU102 or YU102 epimer, as compared to control. YU102 is an inhibitor of the immunoproteasome subunit LMP2.
With reference to FIG. 1B, cognitive function in Tg2576 mice was evaluated by the Morris water maze test, and escape latency time (left) and escape distance of the mice (right) was assessed. Statistical analyses of escape latency and escape distance were performed via two-way ANOVA.

[3] = system: APP transgenic mouse model of AD (Tg2576); assay: Probe trial in Tg2576 mice; type: in vivo; details: Student's t-test, p-value<0.05, n=8
Procedure: as §1
(§2) With reference to FIG. 1C, upon the completion of the Morris water maze test, Tg2576 mice were evaluated in the probe trial (left) and passive avoidance test (right). Statistical analyses of probe trial and passive avoidance were performed via Student's t-test.

[4] = system: APP transgenic mouse model of AD (Tg2576); assay: Passive avoidance test in Tg2576 mice; type: in vivo; details: Student's t-test, p-value<0.05, n=8
Procedure: as §1, §2

[5] = biological target: T1, LMP2 (Mus musculus, UniProt P28076); assay: Proteasome activities in tissue of treated mice, fluorogenic substrates; type: in vivo; details: Tg2576 mice, p-value<0.05, n=3
T1 construct: proteasome activities in brain, spleen, and liver tissue collected from mice treated with vehicle (control), YU102 (10 mg/kg); from tissue; host or cells: brain, spleen and liver tissue of Tg2576 mice
Procedure: With reference to FIG. 1D, proteasome activities in brain, spleen, and liver tissue collected from mice treated with vehicle (control), YU102 (10 mg/kg), or YU102 epimer (10 mg/kg) were measured using fluorogenic substrates.

[6] = system: LPS-stimulated BV-2 cells; assay: Cytokine and chemokine protein array in LPS-stimulated BV-2 cells; type: cell-based; details: 3 μM with LPS (1 μg/mL)
Procedure: With reference to FIG. 2, cytokine production was assessed in LPS-stimulated BV-2 cells. Cytokine and chemokine protein array blots were obtained from BV-2 cells treated with vehicle, LPS (1 μg/mL) alone, and YU102 (3 μM) or ONX0914 (3 μM) with LPS (1 μg/mL). The signal intensity of each cytokine or chemokine was expressed relative to the mean of the intensity of the corresponding spots from vehicle control sample. The bar graph depicts the fold change of each cytokine or chemokine (mean).

In the case of `CC(=O)NCC(=O)N1CCC[C@H]1C(=O)N[C@@H](Cc1ccccc1)C(=O)N[C@@H](CC(C)C)C(=O)[C@]1(C)CO1` [YU102 epi], the LMP2 inhibition [1] was “does not inhibit LMP2”.

`CC(=O)NCC(=O)N1CCC[C@H]1C(=O)N[C@@H](Cc1ccccc1)C(=O)N[C@@H](CC(C)C)C(=O)[C@@]1(C)CO1` [YU102] was tested, and the cognitive deficits ([2]; APPsw (Tg2576) mice, FIGS. 1A-1D) was “amelioration of cognitive deficits”, the “escape distance, difference between control and treated mice” value ([2]; Tg2576 mice, days 3-5, two-way ANOVA, p-value<0.05, n=8) was “statistically significant” and the “time spent in target quadrant, difference between control and treated mice” value [3] was “statistically significant”. For the same compound, the “step through latency, difference between control and treated mice” value [4] was “statistically significant”, the “LMP2 inhibitory activity in spleen and liver tissues, difference between YU102-treated and YU102 epi-treated group” value ([5]; 10 mg/kg each) was “statistically significant” and the “LMP2 inhibitory activity in spleen and liver tissues, difference between control and treated group” value ([5]; 10 mg/kg) was “statistically significant”. The cytokine production [6] was “suppression of cytokine production” and the LMP2 inhibition [1] was “selective LMP2 inhibitor”.
